# Source: patent US20230310444A1, “COMPOSITIONS AND METHODS FOR TREATING DISEASES AND DISORDERS” (Curis, Inc., priority 2020, published 2023)
# “Also recorded” adds a separate entry of the source. Where two headings read alike, the source gives them in different places.
# Assays:
# [1] = tested on: resistant or refractory, advanced NHL; assay: Phase I dose escalation trial of Compound 1 oral monotherapy in NHL (NCT03328078); format: in vivo, human
# Experimental: Seven dosing cohorts included 50 and 100 mg QD, and 50, 100, 200, 300, or 400 mg BID of daily continuous oral monotherapy in 21-Day cycles. Objective included safety and tolerance (primary), pk/pd and early efficacy (secondary), and biomarker correlations (exploratory). 31 patients with resistant or refractory, advanced NHL have been enrolled.
# [2] = tested on: WM; format: in vivo, human
# Experimental: The patient remained asymptomatic for over 4 years with a slow increase in m-protein and IgM during that time. By mid-2017 they started to experience increased fatigue. […] There was no evidence of CXCR4 genomic alteration. […] Several options were discussed including clinical trials and standard of care Bruton’s tyrosine kinase inhibitor (BTKi) therapy.
# Baseline testing in December 2018 included a bone marrow biopsy showing 5-10% involvement by WM, m-protein of 1.66 g/dL, IgM 2,801 mg/dL, and a computed tomography scan without pathological lymphadenopathy or hepatosplenomegaly. Quantitative immunoglobulins and serum protein electrophoresis were obtained each cycle to determine response to treatment (FIG. 1).
# The patient initiated treatment at the first dose level, 50 mg. […] Using a standard 3+3 design the subsequent dose level, 100 mg po BID, was cleared per protocol. Considering evidence of response without noted toxicity, the patient was a candidate to escalate to 100 mg po BID starting with cycle 7 day 1 in April 2019. […] They reported a significant improvement in their quality of life with resolution of fatigue and returned to a rigorous daily exercise program that they had been unable to perform for the last 2 years due to WM-related symptoms. In August 2019 they were noted to have an asymptomatic grade 2 creatine phosphokinase (CPK) elevation, extensive work-up and physical exam was unrevealing. […] During cycles 15 through 20, while on the 200 mg po BID dose, the patient’s IgM plateaued around 1500 mg/dL and m-protein plateaued near 0.9 g/dL. Based on evolving safety data at higher dose levels, the patient was escalated to […] starting with cycle 20 in 1/2020.
# [3] = 200 mg po BID, cycles 15 through 20
compound,measurement,setting,value
Cc1cc(-c2nc(C(=O)Nc3cc4oc(N5CCOCC5)nc4nc3N3CC[C@@H](O)C3)co2)ccn1 [Compound 1],safety and tolerance overall,[1]; 50 mg QD to 400 mg BID,well tolerated; also recorded: good safety and tolerance
same,"Anemia, Grade 3 or Higher",[1]; 200 mg BID N=5,0 n (%) [E]
same,"Thrombocytopenia, All Grades",[1]; 200 mg BID N=5,0 n (%) [E]
same,"Thrombocytopenia, Grade 3 or Higher",[1]; 200 mg BID N=5,0 n (%) [E]
same,"Anemia, Grade 3 or Higher",[1]; 300 mg BID N=6,0 n (%) [E]
same,"Thrombocytopenia, All Grades",[1]; 300 mg BID N=6,0 n (%) [E]
same,"Thrombocytopenia, Grade 3 or Higher",[1]; 300 mg BID N=6,0 n (%) [E]
same,"Neutropenia, Grade 3 or Higher",[1]; 400 mg BID N=8,0 n (%) [E]
same,Tumor Reduction,"[1]; DLBCL (transformed MZL), initial 50 mg qd, final 50 mg qd",24%
same,Tumor Reduction,"[1]; DLBCL-ABC, initial 400 mg bid, final 400 mg bid",42%
same,Tumor Reduction,"[1]; DLBCL, initial 50 mg bid, final 50 mg bid",11%
same,Tumor Reduction,"[1]; FL, initial 100 mg qd, final 50 mg qd",49%
same,Tumor Reduction,"[1]; LPL, initial 200 mg bid, final 300 mg bid *",20%
same,Tumor Reduction,"[1]; MALT/MZL, initial 400 mg bid, final 300 mg bid*",25%
same,Tumor Reduction,"[1]; MZL, initial 400 mg bid, final 400 mg bid",5%
same,Tumor Reduction,"[1]; WM, initial 50 mg bid, final 300 mg bid *",66%
same,"pharmacodynamic changes, cytokines",[1]; in vivo,cytokine reductions
same,"pharmacokinetics, exposure versus dose",[1]; in vivo,dose-proportional increases in exposure
same,clinical activity,[1]; summary,preliminary clinical activity
same,pharmacokinetic properties,[1]; summary,desirable pharmacokinetic properties
same,disease control,[1]; treatment duration between < 1 and 18+ months,sustained disease control
same,IgM,"[2]; 50 mg, cycle 6 day 1",2639 mg/dL
same,IgM,"[2]; 50 mg, during first 2 cycles, baseline 2801 mg/dL",2866 mg/dL
same,m-protein,"[2]; 50 mg, first six 21-day cycles, baseline 1.66 g/dL",1.55 g/dL
same,response,"[2]; 100 mg po BID, cycles 7 and 8",stable disease (SD)
same,IgM plateau,[2]; [3],around 1500 mg/dL
same,m-protein plateau,[2]; [3],~0.9 g/dL
same,IgM,"[2]; 300 g po BID from cycle 20, C22 day 1",1241 mg/dL
same,m-protein,"[2]; after 100 mg po BID cycles 7-8, prior to 200 mg BID escalation",1.37 g/dL
same,m-protein,"[2]; from cycle 20, C22 day 1",0.68 g/dL
